{"source": "paper PMC6211297", "about": "(Biochemistry, 2017)", "biological_target": "PglF (Campylobacter jejuni, UniProt Q0P9D4)", "sequence (Q0P9D4 244-590)": "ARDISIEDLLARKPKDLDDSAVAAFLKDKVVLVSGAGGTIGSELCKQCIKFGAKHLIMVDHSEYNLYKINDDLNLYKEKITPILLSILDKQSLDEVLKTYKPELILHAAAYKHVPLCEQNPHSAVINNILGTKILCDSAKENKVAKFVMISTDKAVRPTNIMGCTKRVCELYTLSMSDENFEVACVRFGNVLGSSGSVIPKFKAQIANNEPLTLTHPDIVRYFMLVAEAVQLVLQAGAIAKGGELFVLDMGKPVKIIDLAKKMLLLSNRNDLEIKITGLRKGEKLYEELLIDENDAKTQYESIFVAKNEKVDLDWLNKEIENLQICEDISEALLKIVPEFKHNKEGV", "test": "X-ray crystal structure, […] Å", "type": "binding", "conditions": "ternary complex with NAD(H); 10 mM UDP, pH 6.0; active site"}
{"smiles": "O=c1ccn([C@@H]2O[C@H](COP(=O)(O)OP(=O)(O)O)[C@@H](O)[C@H]2O)c(=O)[nH]1", "note": "[UDP]", "values": [{"measurement": "X-ray crystal structure, 2.0 Å", "result": "The first structure determined in this investigation was that of the PglF/NAD(H)/UDP ternary complex"}]}
